Earlier results, collected in publication PMC5085262 (Chemical Science, 2016).

Conditions: no reference given

For `Oc1cccc2cccnc12` [Quin, 8-hydroxyquinoline], the “pKa of the free ligand (phenolate group)” value is listed as “≈ 9.9”.
